Test systems include Escherichia coli 780; Escherichia coli 804; Staphylococcus aureus 75.
Common to all, as to assay: ≥ marks a high value that may be exact or a test limit, other limits are often not marked, values filed in µg/mL are converted to µM
The test system of assay [1] is Bacillus licheniformis X39.
For assay [2], the system named is Escherichia coli ATCC 25922.
Assay [3] has as its system Rhodococcus rhodochrous X15.
For assay [4], the system named is Acinetobacter baumannii ATCC 19606.
The test system of assay [5] is Bacillus subtilis ATCC 23857.
Assay [6] deals with Staphylococcus aureus 113.
The subject of assay [7] is Pseudomonas aeruginosa 50.
The subject of assay [8] is Acinetobacter baumannii 97830.
For assay [9], the system named is Klebsiella pneumoniae ATCC 700603.
The subject of assay [10] is Staphylococcus aureus ATCC 29213.
In assay [11] the test system is Acinetobacter baumannii 9931.
In assay [12] the test system is Pseudomonas aeruginosa ATCC 27853.
For assay [13], the system named is Staphylococcus epidermidis ATCC 12228.
For assay [14], the system named is Pseudomonas aeruginosa 73.
Assay [15] relates to Pseudomonas aeruginosa ATCC 9027.
Assay [16] concerns Cryptococcus neoformans ATCC 32045.
The subject of assay [17] is Candida albicans ATCC 10231.
For assay [18], the system named is Pseudomonas aeruginosa ATCC 10145.
The subject of assay [19] is Escherichia coli ATCC 2592.
Assay [20] relates to Staphylococcus aureus ATCC 33591.

Values after ≈ are worked out from the molar mass of the structure shown.

What is called MIC is the least concentration at which growth counts as inhibited. A high value points to a less susceptible organism. `CC[C@H](C)[C@@H]1NC(=O)[C@H](CCCCN)NC(=O)[C@@H](NC(=O)[C@H](Cc2ccccc2)NC(=O)[C@H](CC(C)C)NC(=O)[C@@H](NC(=O)[C@@H]2CCCN2C(=O)[C@@H](NC(=O)[C@@H](NC(=O)[C@H](CC(N)=O)NC(=O)[C@H](C)NC(=O)[C@H](C)NC(=O)[C@@H](NC(=O)[C@H](CCCCN)NC(=O)[C@H](CC(C)C)NC(=O)[C@H](C)NC(=O)[C@@H](NC(=O)[C@H](CO)NC(=O)[C@H](CC(C)C)NC(=O)[C@@H](N)Cc2ccccc2)[C@@H](C)O)C(C)C)C(C)C)C(C)C)[C@@H](C)O)CSSC[C@@H](C(=O)O)NC(=O)[C@H](CCCCN)NC(=O)[C@H](CCCCN)NC(=O)[C@H]([C@@H](C)O)NC1=O` [FLSTALKVAANVVPTLFCKITKKC]: the MIC was at least 75 µM in assay [1], 150 µM (≈ 389 µg/mL) in assay [2] and 9 µM (≈ 23.3 µg/mL) in [3].

As for `CC[C@H](C)[C@H](N)C(=O)N[C@@H](Cc1c[nH]c2ccccc12)C(=O)N[C@@H](CCCN=C(N)N)C(=O)N[C@@H](Cc1c[nH]c2ccccc12)C(=O)N[C@@H](Cc1c[nH]c2ccccc12)C(=O)N[C@@H](Cc1c[nH]c2ccccc12)C(=O)N[C@@H](CCCN=C(N)N)C(=O)N[C@@H](Cc1c[nH]c2ccccc12)C(=O)N[C@H](C(N)=O)[C@@H](C)CC` [IWRWWWRWI], the minimum inhibitory concentration (MIC) against Escherichia coli 780 stood at 16 µM (≈ 23.8 µg/mL); in assay [4] it was 32 µM (≈ 47.6 µg/mL); in assay [5] it was 4 µM (≈ 5.95 µg/mL); in assay [6], 4 µM (≈ 5.95 µg/mL); in [7], 16 µM (≈ 23.8 µg/mL); in assay [8] it was 8 µM (≈ 11.9 µg/mL). The minimal inhibitory concentration (MIC) in [9] was determined as 8 µM (≈ 11.9 µg/mL); in assay [10], 4 µM (≈ 5.95 µg/mL); in the assay with Escherichia coli 804 it was 8 µM (≈ 11.9 µg/mL); in [11] it was 8 µM (≈ 11.9 µg/mL); in assay [12], 32 µM (≈ 47.6 µg/mL); with Staphylococcus aureus 75 it was 8 µM (≈ 11.9 µg/mL). Besides, the MIC is 4 µM (≈ 5.95 µg/mL) in [13], at least 32 µM in assay [14] and 32 µM (≈ 47.6 µg/mL) in assay [15].

As for `C[C@H](NC(=O)[C@H](Cc1ccccc1)NC(=O)[C@H](CCCCN)NC(=O)[C@H](CCCCN)NC(=O)[C@H](C)NC(=O)[C@H](Cc1ccccc1)NC(=O)[C@H](CCCCN)NC(=O)[C@H](CCCCN)NC(=O)[C@H](C)NC(=O)[C@H](Cc1ccccc1)NC(=O)[C@H](CCCCN)NC(=O)[C@H](CCCCN)NC(=O)[C@H](C)NC(=O)[C@H](Cc1ccccc1)NC(=O)[C@H](CCCCN)NC(=O)[C@H](CCCCN)NC(=O)[C@H](C)NC(=O)[C@H](Cc1ccccc1)NC(=O)[C@@H](N)CCCCN)C(=O)N[C@@H](CCCCN)C(=O)O` [KFAKKFAKKFAKKFAKKFAK], the MIC in assay [16] was 4.73 µM (≈ 11.3 µg/mL); in assay [17], 44.4 µM (≈ 106 µg/mL); in [18] it was 3.35 µM (≈ 8 µg/mL); in assay [19] it was 9.46 µM (≈ 22.6 µg/mL); in assay [20], at least 105 µM.

For the molecule `NCCCC[C@H](NC(=O)[C@H](Cc1ccccc1)NC(=O)[C@H](CCCCN)NC(=O)[C@H](CCCCN)NC(=O)[C@H](Cc1ccccc1)NC(=O)[C@H](CCCCN)NC(=O)[C@H](CCCCN)NC(=O)[C@H](Cc1ccccc1)NC(=O)[C@H](CCCCN)NC(=O)[C@H](CCCCN)NC(=O)[C@H](Cc1ccccc1)NC(=O)[C@H](CCCCN)NC(=O)[C@H](CCCCN)NC(=O)[C@H](Cc1ccccc1)NC(=O)[C@H](CCCCN)NC(=O)[C@H](CCCCN)NC(=O)[C@H](Cc1ccccc1)NC(=O)[C@H](CCCCN)NC(=O)[C@H](CCCCN)NC(=O)[C@H](Cc1ccccc1)NC(=O)[C@H](CCCCN)NC(=O)[C@H](CCCCN)NC(=O)[C@H](Cc1ccccc1)NC(=O)[C@H](CCCCN)NC(=O)[C@H](CCCCN)NC(=O)[C@H](Cc1ccccc1)NC(=O)[C@@H](N)CCCCN)C(=O)O` [KFKKFKKFKKFKKFKKFKKFKKFKKFK], the minimal inhibitory concentration (MIC) in assay [16] was 24.1 µM (≈ 88 µg/mL); in assay [17] it was 96.9 µM (≈ 354 µg/mL); in assay [18] it was at least 34.2 µM; in assay [19], 6.2 µM (≈ 22.6 µg/mL); in [20], at least 48.4 µM.

Turning to `CC(C)C[C@H](NC(=O)[C@H](CCCCN)NC(=O)[C@H](CCCCN)NC(=O)[C@H](CC(C)C)NC(=O)[C@H](CC(C)C)NC(=O)[C@H](CCCCN)NC(=O)[C@H](CCCCN)NC(=O)[C@H](CC(C)C)NC(=O)[C@H](CC(C)C)NC(=O)[C@H](CCCCN)NC(=O)[C@H](CCCCN)NC(=O)[C@H](CC(C)C)NC(=O)[C@H](CC(C)C)NC(=O)[C@H](CCCCN)NC(=O)[C@H](CCCCN)NC(=O)[C@H](CC(C)C)NC(=O)[C@H](CC(C)C)NC(=O)[C@H](CCCCN)NC(=O)[C@H](CCCCN)NC(=O)[C@@H](N)CC(C)C)C(=O)O` [LKKLLKKLLKKLLKKLLKKL], the MIC in assay [16] was at least 36.2 µM; in assay [17], over 206 µM; in assay [18], 25.5 µM (≈ 62 µg/mL); in assay [19] it was at least 36.2 µM; in [20], at least 103 µM.

Turning to `CC(C)[C@H](N)C(=O)N[C@@H](CCCN=C(N)N)C(=O)N[C@@H](CCCN=C(N)N)C(=O)N[C@@H](Cc1c[nH]c2ccccc12)C(=O)N[C@@H](Cc1c[nH]c2ccccc12)C(=O)N[C@@H](Cc1c[nH]c2ccccc12)C(=O)N[C@@H](CCCN=C(N)N)C(=O)N[C@@H](CCCN=C(N)N)C(=O)N[C@H](C(N)=O)C(C)C` [VRRWWWRRV], the MIC was at least 64 µM in the assay on Escherichia coli 780; 128 µM (≈ 179 µg/mL) in [4]; 4 µM (≈ 5.59 µg/mL) in assay [5]; 16 µM (≈ 22.4 µg/mL) in assay [6]; at least 128 µM in assay [7]; at least 64 µM in assay [8]. Also, the MIC in [9] is 64 µM (≈ 89.5 µg/mL); in assay [10], 8 µM (≈ 11.2 µg/mL); with Escherichia coli 804, at least 64 µM; in assay [11], at least 32 µM; in assay [12], 32 µM (≈ 44.8 µg/mL); in the assay with Staphylococcus aureus 75, 8 µM (≈ 11.2 µg/mL). The results for the minimal inhibitory concentration (MIC) in assay [13], in assay [14] and in assay [15] were 4 µM (≈ 5.59 µg/mL), at least 128 µM and 32 µM (≈ 44.8 µg/mL), respectively.

For `CC(C)[C@H](N)C(=O)N[C@@H](Cc1c[nH]c2ccccc12)C(=O)N[C@@H](CCCN=C(N)N)C(=O)N[C@@H](Cc1c[nH]c2ccccc12)C(=O)N[C@@H](Cc1c[nH]c2ccccc12)C(=O)N[C@@H](Cc1c[nH]c2ccccc12)C(=O)N[C@@H](CCCN=C(N)N)C(=O)N[C@@H](Cc1c[nH]c2ccccc12)C(=O)N[C@H](C(N)=O)C(C)C` [VWRWWWRWV], the MIC in the assay on Escherichia coli 780 was 4 µM (≈ 5.83 µg/mL); in assay [4], 16 µM (≈ 23.3 µg/mL); in assay [5], 4 µM (≈ 5.83 µg/mL); in assay [6], 4 µM (≈ 5.83 µg/mL); in assay [7], at least 32 µM; in [8], 4 µM (≈ 5.83 µg/mL). Also, the minimal inhibitory concentration (MIC) worked out at 8 µM (≈ 11.7 µg/mL) in assay [9]; 4 µM (≈ 5.83 µg/mL) in assay [10]; 16 µM (≈ 23.3 µg/mL) against Escherichia coli 804; 8 µM (≈ 11.7 µg/mL) in [11]; 32 µM (≈ 46.7 µg/mL) in [12]; 4 µM (≈ 5.83 µg/mL) against Staphylococcus aureus 75. In addition, the MIC in assay [13] was 4 µM (≈ 5.83 µg/mL); in assay [14] it was at least 32 µM; in assay [15], 32 µM (≈ 46.7 µg/mL).

These data come from DBAASP.
